Data reported in patent US9695155B2, “Herbicidal substituted pyrimidinyloxy benzene compounds” (E. I. DU PONT DE NEMOURS AND COMPANY, priority 2013, dated 2017).

Tests used:
oilseed rape = experiment: Test C postemergence; format: in vivo, Brassica napus; conditions: for Plant response rating (0 to 100), Oilseed Rape: 16 g ai/ha, 0 is no effect, 100 is complete control; for Oilseed Rape plant response rating: 31 g ai/ha; for Oilseed Rape plant response rating / Plant response rating, Oilseed Rape: scale 0 to 100 (0 no effect, 100 complete control)
Procedure, shortened: (§1)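 Seeds were sown in loam–sand blend and sprayed preemergence, while plants at 1- to 4-leaf stage (2–18 cm) in peat-based medium received postemergence sprays; test chemicals were formulated in a non-phytotoxic solvent with surfactant. After 13–15 days in a greenhouse, injury was rated visually against controls, 0 (no effect) to 100 (complete control).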

galium = experiment: Test C postemergence; format: in vivo, Galium aparine; conditions: for Plant response rating (0 to 100), Galium: 16 g ai/ha, 0 is no effect, 100 is complete control; for Galium plant response rating: 31 g ai/ha; for Galium plant response rating / Plant response rating, Galium: scale 0 to 100 (0 no effect, 100 complete control)
Procedure, shortened: as §1

lambsquarters = experiment: Test C postemergence; format: in vivo, Chenopodium album; conditions: for Plant response rating (0 to 100), Lambsquarters: 16 g ai/ha, 0 is no effect, 100 is complete control; for Lambsquarters plant response rating: 31 g ai/ha; for Lambsquarters plant response rating / Plant response rating, Lambsquarters: scale 0 to 100 (0 no effect, 100 complete control)
Procedure, shortened: as §1

wild oat = experiment: Test C postemergence; format: in vivo, Avena fatua; conditions: for Plant response rating (0 to 100), Oat, Wild: 16 g ai/ha, 0 is no effect, 100 is complete control; for Oat, Wild plant response rating: 31 g ai/ha; for Oat, Wild plant response rating / Plant response rating, Oat, Wild: scale 0 to 100 (0 no effect, 100 complete control)
Procedure, shortened: as §1

wheat = experiment: Test A preemergence; format: in vivo, Triticum aestivum; conditions: for Wheat plant response rating (0 to 100 scale): 125 g ai/ha
Procedure, shortened: (§2)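 Visual injury scored 0–100 (100 = complete control) against untreated controls about 10 days after treatment in a greenhouse. Test chemicals, formulated with surfactant in non-phytotoxic solvent, were sprayed on soil preemergence or on 2-10 cm, one- to two-leaf plants postemergence.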

velvetleaf = experiment: Test A postemergence; format: in vivo, Abutilon theophrasti; conditions: 0 to 100 scale where 0 is no effect and 100 is complete control; for Velvetleaf plant response rating: 125 g ai/ha; for Plant response rating, Velvetleaf: 500 g ai/ha
Procedure, shortened: as §2

pigweed [1] = experiment: Test A postemergence; format: in vivo, Amaranthus retroflexus; conditions: 0 to 100 scale where 0 is no effect and 100 is complete control; for Pigweed plant response rating: 125 g ai/ha; for Plant response rating, Pigweed: 500 g ai/ha
Procedure, shortened: as §2

barnyardgrass [2] = experiment: Test C postemergence; format: in vivo, Echinochloa crus-galli; conditions: for Plant response rating (0 to 100), Barnyardgrass: 16 g ai/ha, 0 is no effect, 100 is complete control; for Barnyardgrass plant response rating: 31 g ai/ha, 13 to 15 days; for Barnyardgrass plant response rating / Plant response rating, Barnyardgrass: scale 0 to 100 (0 no effect, 100 complete control)
Procedure, shortened: as §1

giant foxtail = experiment: Test A preemergence; format: in vivo, Setaria faberii; conditions: for Foxtail, Giant plant response rating (0 to 100 scale): 125 g ai/ha; for Foxtail, Giant plant response rating: 500 g ai/ha, 0 to 100 scale where 0 is no effect and 100 is complete control
Procedure, shortened: as §2

barnyardgrass [3] = experiment: Test A preemergence; format: in vivo, Echinochloa crus-galli; conditions: for Barnyardgrass plant response rating (0 to 100 scale, 0 is no effect, 100 is complete control): 125 g ai/ha; for Barnyardgrass plant response rating: 500 g ai/ha, 0 to 100 scale where 0 is no effect and 100 is complete control
Procedure, shortened: as §2

waterhemp = experiment: Test C postemergence; format: in vivo, Amaranthus rudis; conditions: for Plant response rating (0 to 100), Waterhemp: 16 g ai/ha, 0 is no effect, 100 is complete control; for Waterhemp plant response rating: 31 g ai/ha; for Waterhemp plant response rating / Plant response rating, Waterhemp: scale 0 to 100 (0 no effect, 100 complete control)
Procedure, shortened: as §1

large (Lg) crabgrass = experiment: Test C postemergence; format: in vivo, Digitaria sanguinalis; conditions: for Plant response rating (0 to 100), Crabgrass, Large: 16 g ai/ha, 0 is no effect, 100 is complete control; for Crabgrass, Large plant response rating: 31 g ai/ha; for Crabgrass, Large plant response rating / Plant response rating, Crabgrass, Large: scale 0 to 100 (0 no effect, 100 complete control)
Procedure, shortened: as §1

pigweed [4] = experiment: Test A preemergence; format: in vivo, Amaranthus retroflexus; conditions: for Pigweed plant response rating (0 to 100 scale): 125 g ai/ha; for Pigweed plant response rating: 500 g ai/ha, 0 to 100 scale where 0 is no effect and 100 is complete control
Procedure, shortened: as §2

blackgrass = experiment: Test C postemergence; format: in vivo, Alopecurus myosuroides; conditions: for Plant response rating (0 to 100), Blackgrass: 16 g ai/ha, 0 is no effect, 100 is complete control; for Blackgrass plant response rating: 31 g ai/ha; for Blackgrass plant response rating / Plant response rating, Blackgrass: scale 0 to 100 (0 no effect, 100 complete control)
Procedure, shortened: as §1

johnsongrass = experiment: Test C postemergence; format: in vivo, Sorghum halepense; conditions: for Plant response rating (0 to 100), Johnsongrass: 16 g ai/ha, 0 is no effect, 100 is complete control; for Johnsongrass plant response rating: 31 g ai/ha; for Johnsongrass plant response rating / Plant response rating, Johnsongrass: scale 0 to 100 (0 no effect, 100 complete control)
Procedure, shortened: as §1

[5] = postemergence, visual rating, 13 to 15 days
[6] = 125 g ai/ha, postemergence, visual rating
[7] = Postemergence, 62 g ai/ha, 13 to 15 days

Clc1cnc(Oc2cccc(Cl)c2-n2cc(Cl)cn2)nc1 [Compound 220]
Plant response rating (0 to 100), Oilseed Rape (oilseed rape; postemergence): 50
Oilseed Rape plant response rating (oilseed rape; [5]): 65
Plant response rating, Oilseed Rape (oilseed rape; [6]): 90
Plant response rating, Oilseed Rape (oilseed rape; [7]): 85
Plant response rating (0 to 100), Galium (galium; postemergence): 50
Galium plant response rating (galium; [5]): 70
Plant response rating, Galium (galium; [6]): 95
Plant response rating, Galium (galium; [7]): 80
Plant response rating (0 to 100), Lambsquarters (lambsquarters; postemergence): 15
Lambsquarters plant response rating (lambsquarters; [5]): 50
Plant response rating, Lambsquarters (lambsquarters; [6]): 75
Plant response rating, Lambsquarters (lambsquarters; [7]): 55
Plant response rating (0 to 100), Oat, Wild (wild oat; postemergence): 5
Oat, Wild plant response rating (wild oat; [5]): 25
Plant response rating, Oat, Wild (wild oat; [6]): 50
Plant response rating, Oat, Wild (wild oat; [7]): 35
Wheat plant response rating (0 to 100 scale) (wheat): 0
Wheat plant response rating (wheat; 500 g ai/ha, 0 to 100 scale where 0 is no effect and 100 is complete control): 20
Velvetleaf plant response rating (velvetleaf): 100
Plant response rating, Velvetleaf (velvetleaf): 100
Pigweed plant response rating (pigweed [1]): 100
Plant response rating, Pigweed (pigweed [1]): 100
Plant response rating (0 to 100), Barnyardgrass (barnyardgrass [2]; postemergence): 5
Barnyardgrass plant response rating (barnyardgrass [2]; postemergence, visual rating): 10
Plant response rating, Barnyardgrass (barnyardgrass [2]; [6]): 15
Plant response rating, Barnyardgrass (barnyardgrass [2]; Postemergence, 62 g ai/ha): 10
Foxtail, Giant plant response rating (0 to 100 scale) (giant foxtail): 100
Foxtail, Giant plant response rating (giant foxtail): 100
Barnyardgrass plant response rating (0 to 100 scale, 0 is no effect, 100 is complete control) (barnyardgrass [3]): 60
Barnyardgrass plant response rating (barnyardgrass [3]): 100
Plant response rating (0 to 100), Waterhemp (waterhemp; postemergence): 65
Waterhemp plant response rating (waterhemp; [5]): 70
Plant response rating, Waterhemp (waterhemp; [6]): 85
Plant response rating, Waterhemp (waterhemp; [7]): 75
Plant response rating (0 to 100), Crabgrass, Large (large (Lg) crabgrass; postemergence): 5
Crabgrass, Large plant response rating (large (Lg) crabgrass; [5]): 5
Plant response rating, Crabgrass, Large (large (Lg) crabgrass; [6]): 5
Plant response rating, Crabgrass, Large (large (Lg) crabgrass; [7]): 5
Pigweed plant response rating (0 to 100 scale) (pigweed [4]): 100
Pigweed plant response rating (pigweed [4]): 100
Plant response rating (0 to 100), Blackgrass (blackgrass; postemergence): 0
Blackgrass plant response rating (blackgrass; [5]): 60
Plant response rating, Blackgrass (blackgrass; [6]): 50
Plant response rating, Blackgrass (blackgrass; [7]): 40
Plant response rating (0 to 100), Johnsongrass (johnsongrass; postemergence): 5
Johnsongrass plant response rating (johnsongrass; [5]): 0
Plant response rating, Johnsongrass (johnsongrass; [6]): 5
Plant response rating, Johnsongrass (johnsongrass; [7]): 5

FC(F)c1cnn(-c2c(Cl)cccc2Oc2ncc(Cl)cn2)c1 [Compound 192]
Plant response rating (0 to 100), Oilseed Rape (oilseed rape; postemergence): 10
Oilseed Rape plant response rating (oilseed rape; [5]): 5
Plant response rating, Oilseed Rape (oilseed rape; [6]): 60
Plant response rating, Oilseed Rape (oilseed rape; [7]): 60
Plant response rating (0 to 100), Galium (galium; postemergence): 60
Galium plant response rating (galium; [5]): 80
Plant response rating, Galium (galium; [6]): 85
Plant response rating, Galium (galium; [7]): 80
Plant response rating (0 to 100), Lambsquarters (lambsquarters; postemergence): 10
Lambsquarters plant response rating (lambsquarters; [5]): 25
Plant response rating, Lambsquarters (lambsquarters; [6]): 90
Plant response rating, Lambsquarters (lambsquarters; [7]): 90
Plant response rating (0 to 100), Oat, Wild (wild oat; postemergence): 0
Oat, Wild plant response rating (wild oat; [5]): 0
Plant response rating, Oat, Wild (wild oat; [6]): 5
Plant response rating, Oat, Wild (wild oat; [7]): 5
Wheat plant response rating (0 to 100 scale) (wheat): 0
Velvetleaf plant response rating (velvetleaf): 90
Plant response rating, Velvetleaf (velvetleaf): 100
Pigweed plant response rating (pigweed [1]): 100
Plant response rating, Pigweed (pigweed [1]): 100
Plant response rating (0 to 100), Barnyardgrass (barnyardgrass [2]; postemergence): 5
Barnyardgrass plant response rating (barnyardgrass [2]; postemergence, visual rating): 10
Plant response rating, Barnyardgrass (barnyardgrass [2]; [6]): 10
Plant response rating, Barnyardgrass (barnyardgrass [2]; Postemergence, 62 g ai/ha): 10
Foxtail, Giant plant response rating (0 to 100 scale) (giant foxtail): 100
Foxtail, Giant plant response rating (giant foxtail): 100
Barnyardgrass plant response rating (0 to 100 scale, 0 is no effect, 100 is complete control) (barnyardgrass [3]): 60
Barnyardgrass plant response rating (barnyardgrass [3]): 100
Plant response rating (0 to 100), Waterhemp (waterhemp; postemergence): 40
Waterhemp plant response rating (waterhemp; [5]): 50
Plant response rating, Waterhemp (waterhemp; [6]): 85
Plant response rating, Waterhemp (waterhemp; [7]): 65
Plant response rating (0 to 100), Crabgrass, Large (large (Lg) crabgrass; postemergence): 5
Crabgrass, Large plant response rating (large (Lg) crabgrass; [5]): 10
Plant response rating, Crabgrass, Large (large (Lg) crabgrass; [6]): 5
Plant response rating, Crabgrass, Large (large (Lg) crabgrass; [7]): 5
Pigweed plant response rating (0 to 100 scale) (pigweed [4]): 100
Pigweed plant response rating (pigweed [4]): 100
Plant response rating (0 to 100), Blackgrass (blackgrass; postemergence): 0
Blackgrass plant response rating (blackgrass; [5]): 0
Plant response rating, Blackgrass (blackgrass; [6]): 10
Plant response rating, Blackgrass (blackgrass; [7]): 5
Plant response rating (0 to 100), Johnsongrass (johnsongrass; postemergence): 5
Johnsongrass plant response rating (johnsongrass; [5]): 10
Plant response rating, Johnsongrass (johnsongrass; [6]): 10
Plant response rating, Johnsongrass (johnsongrass; [7]): 5
